The structures appear in SMILES notation. Like-named read-outs stand apart in the source and are kept apart here.

Consider 13 compounds from patent US5827881A, “Diesters of carbonic acid endowed with antiviral and anti-inflammatory activity” (Italfarmaco S.P.A., priority 1994, dated 1998).

Assay [1] deals with human TNF (Tumor Necrosis Factor) citotoxicity on LM cells (murine fibroblast strain). In words: In vitro anti-inflammatory activity: inhibition of the citotoxicity induced by human TNF on a murine fibroblast strain (LM cells, MTT). Format: cell-based. Particulars: Mus musculus; for inhibition at 10 µg/mL: compound 10 μg/ml; for inhibition at 100 µg/mL: compound 100 μg/ml. The procedure: In vitro anti-inflammatory activity
In a 96-square bottomed wells plate 15.000 LM cells (Rubin. B. Y. et al., J.Exp. Med., 162:1099, 1985) were inseminated each well (100 μl) in complete RPMI medium (Flow Lab., Hertz. GB). Each well was added with 50 μl of a solution of a compound to be tested at the due concentration, and 50 μl of a solution of TNF at the due concentration. After 2 days, each well was added with 40 μl of a solution of MTT [3-(4,5-dimethylthiazol-2-yl)-2,5-diphenyltetrazolium bromide], and the whole was incubated at 37° C. for 4 hours, then the content of the wells was sucked up, added with 200 μl/well of dimethylsulfoxide to dissolve the blue crystals of formazane formed because of the cell activity, then the optical density values were read by a reader with a 570 nm filter. […] The optical density values are directly proportional to the inhibitory activity performed by the compounds of the invention against TNF.

The subject of assay [2] is Carrageenan-induced oedema. In words: Carrageenan-induced oedema (acute inflammation). Type of assay: in vivo. As to conditions: oral; for % of inhibition (reduction of the oedema), 1 hour: 1 hour after carrageenan; for % of inhibition (reduction of the oedema), 3 hours: 3 hours after carrageenan; for % of inhibition (reduction of the oedema), 5 hours: 5 hours after carrageenan. The procedure:
In vivo anti-inflammatory activity: models of acute inflammation
A. Carrageenan-induced oedema The test is disclosed, inter alia, by Blake, D. R. et al., Ann. Rheum. Dis., 43, 89-93, 1983. The animals were orally administered with 10 or 30 mg/kg doses of the compounds of the invention 1 hour before the injection of carrageenan. The condition of the oedema was checked 1, 3 and 5 hours after said injection. In Table 3 the percentage of reduction of the oedema is set forth.
A general note: The carrageenan paw model is a standard test of acute inflammation.

Assay [3] has as its system 8E51 Cells permanently infected with LAV (Lymphotropic Adenopathy Virus) and MOLT3 cells. In words: Antiviral activity: syncytia formation inhibition (8E51 cells infected with LAV co-incubated with MOLT3 cells). Type of assay: cell-based. As to conditions: Homo sapiens, MOLT-3. The procedure: The antiviral activity of the compound of the invention was evaluated by the test of the syncytia formation inhibition, according to the procedure reported hereinbelow.
8E51 Cells permanently infected with LAV (Lymphotropic Adenopathy Virus) defective of the po1 gene, and MOLT3 cells (CD4+ human T-lymphoblastoid strain), cultured in RPMI 1640 medium with 10% calf fetal serum were co-incubated in a ratio of 1:2, at a concentration of 10^6 cells/ml, and put in 96-conic shaped bottom wells Microtiter plates. The cells were added with some compounds representative of the invention suitably diluted and, after 30 minutes at 37° C., the whole was centrifuged to obtain a sediment. The […] was incubated for further 2 hours at 37° C., then put in square-bottomed wells. The syncytia (10-100 times bigger than the starting cells) were counted with an optic microscope. In the controls about 100-200 syncytia/well could be seen.

Where [4] appears, read: TNF 1 ng/ml, read-out: % of inhibition, TNF (1 ng/ml).
Where [5] appears, read: TNF 5 ng/ml, read-out: % of inhibition, TNF (5 ng/ml).

Consider `CCCCN(CCCC)CCCOC(=O)OCCCN(CCCC)CCCC` [19, D]], for which, in assay [1] (setting [4]), the inhibition at 10 µg/mL turned out to be 17% and the inhibition at 100 µg/mL was found to be 48%.
Take `CCCCN(CCCC)CCCC(CC)OC(=O)OC(CC)CCCN(CCCC)CCCC` (stereo not drawn) [38, E]]: in assay [2] (10 mg/kg), the “% of inhibition (reduction of the oedema), 1 hour” value was 22.5%; the “% of inhibition (reduction of the oedema), 3 hours” value came out at 15%; the “% of inhibition (reduction of the oedema), 5 hours” value is listed as 20.5%.
In the case of `CCCCN(CCCC)[C@@H]1CCCC[C@H]1OC(=O)OCc1cccnc1` (relative stereo) [4, C]], in assay [3], the inhibition at 50 µM amounted to 18% and the inhibition at 100 µM was 28%. Also, the inhibition at 100 µg/mL in assay [1] (setting [4]) was 23%.
On to `CN(CCCOC(=O)OCCCN(C)Cc1ccccc1)Cc1ccccc1` [16, D]], for which the inhibition at 100 µM in assay [3] was found to be 27%. For the same compound, the inhibition at 100 µg/mL in assay [1] (setting [5]) turned out to be 21%.
Take `CC(C)N(CCCCOC(=O)OCCCCN(C(C)C)C(C)C)C(C)C` [18, D]]: in assay [3], the inhibition at 50 µM was determined as 55% and the inhibition at 100 µM was determined as 63%. Moreover, the inhibition at 100 µg/mL in assay [1] (setting [4]) amounted to 17%. Further, in assay [2] (30 mg/kg), the “% of inhibition (reduction of the oedema), 3 hours” value amounted to 27% and the “% of inhibition (reduction of the oedema), 5 hours” value is 28.7%.
As to `CCCCN(CCCC)CCCOC(=O)OC(C)CCCN(CCCC)CCCC` (stereo not drawn) [12, B]], in assay [1] (setting [4]), the inhibition at 10 µg/mL amounted to 68% and the inhibition at 100 µg/mL is 65%. For the same compound, in assay [1] (setting [5]), the inhibition at 10 µg/mL amounted to 50% and the inhibition at 100 µg/mL was 62%.
For `O=C(OCCCN(Cc1ccccc1)Cc1ccccc1)OCCCN(Cc1ccccc1)Cc1ccccc1` [17, D]], in assay [3], the inhibition at 100 µM was determined as 19%.
For the compound `CCCCN(CCCC)CCCCCOC(=O)OCCCCCN(CCCC)CCCC` [14, E]], the inhibition at 100 µg/mL in assay [1] (setting [4]) amounted to 100%; in assay [1] (setting [5]), 59%.
`CCN(CC)CCCCCCOC(=O)OCCCCCCN(CC)CC` [13, E]]: in assay [3], the inhibition at 50 µM stood at 27.5% and the inhibition at 100 µM stood at 43.5%. Besides, in assay [1] (setting [4]), the inhibition at 10 µg/mL turned out to be 55% and the inhibition at 100 µg/mL turned out to be 45%. In addition, the inhibition at 100 µg/mL in assay [1] (setting [5]) came out at 21%.
Consider `CCCCN1CCC(COC(=O)OCC2CCN(CCCC)CC2)CC1` [1, E]], for which, in assay [3], the inhibition at 25 µM was found to be 56.5%, the inhibition at 50 µM was found to be 70% and the inhibition at 100 µM came out at 79%. Further, in assay [3] (200 μM), the inhibition at 200 µM worked out at 97%. For the same compound, in assay [1] (setting [4]), the inhibition at 10 µg/mL came out at 45%.
Regarding `CCCCN(CCCC)[C@@H]1CCCC[C@H]1OC(=O)OCC1CCCN(C)C1` (stereo partly drawn) [5, C]], in assay [3], the inhibition at 50 µM is 22% and the inhibition at 100 µM was determined as 23%. In addition, in assay [1] (setting [4]), the inhibition at 10 µg/mL came out at 73% and the inhibition at 100 µg/mL came out at 36%. Moreover, in assay [1] (setting [5]), the inhibition at 10 µg/mL worked out at 21% and the inhibition at 100 µg/mL was 30%.
Consider `CCCCN(CCCC)CCC(C)OC(=O)OC(C)CCN(CCCC)CCCC` (stereo not drawn) [8, D]], for which, in assay [3] (12.5 μM), the inhibition at 12.5 µM is 33%. Also, in assay [3], the inhibition at 25 µM was found to be 49%, the inhibition at 50 µM worked out at 55% and the inhibition at 100 µM was 27%. Also, in assay [1] (setting [4]), the inhibition at 10 µg/mL is 100% and the inhibition at 100 µg/mL was 100%. Further, in assay [1] (setting [5]), the inhibition at 10 µg/mL is 56% and the inhibition at 100 µg/mL amounted to 82%.
Regarding `CCCCN(CCCC)CCCC(C)OC(=O)OC(C)CCCN(CCCC)CCCC` (stereo not drawn) [10, C]], in assay [3], the inhibition at 25 µM is 29.5% and the inhibition at 50 µM was 45.5%. Also, in assay [1] (setting [4]), the inhibition at 10 µg/mL is 100% and the inhibition at 100 µg/mL stood at 100%. Moreover, in assay [1] (setting [5]), the inhibition at 10 µg/mL stood at 73% and the inhibition at 100 µg/mL came out at 95%. Besides, in assay [2] (10 mg/kg), the “% of inhibition (reduction of the oedema), 1 hour” value is reported as 26.1% and the “% of inhibition (reduction of the oedema), 3 hours” value was determined as 10%. Moreover, in assay [2] (30 mg/kg), the “% of inhibition (reduction of the oedema), 1 hour” value was 13%; the “% of inhibition (reduction of the oedema), 3 hours” value amounted to 43%; the “% of inhibition (reduction of the oedema), 5 hours” value is recorded as 31.3%.
